This note sets out measurements from PubChem BioAssay AID2765 (Broad Institute, 2010).

Structures are written as SMILES. Calls of active or inactive are those of the source.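 The calls were made as follows: active = half-maximal concentration for the rise in caspase light signal at or below ten times the top tested dose; inconclusive = flat fit between 30% and 70% activity, or unreliable curve fit; inactive = the rest.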

A word on the EC50: it is the concentration giving half of the maximal effect.

The test relates to MEF A1-2A-BIM cells, caspase 3/7 luminescence, 3 h. Put plainly: caspase activation in A1-2A-BIM MEF cells, dose response, A1 inhibitor project, cell-based, luminescence, retest (AID 2765).

For the compound `Cc1ccc(Sc2ncccc2C(=O)NCc2cc([N+](=O)[O-])ccc2O)cc1C`, the EC50 was > 35 µM (inactive). With `CC(C)[C@H](NS(=O)(=O)c1ccccc1F)C(=O)OCC(=O)Nc1cccc(S(N)(=O)=O)c1`, the EC50 is > 35 µM (inactive).

For `Cc1cc(C)n(-c2nc(Nc3ccccc3C)nc(-n3nc(C)cc3C)n2)n1`, the EC50 was > 35 µM (inactive). The result for `CNC(=S)NC1(C)CCS(=O)(=O)C1` (stereo not given) reads > 35 µM (inactive). As for `Cc1ccc(S(=O)(=O)N2CCCC2)cc1C(=O)NCc1ccccc1CN1CCCC1`, the EC50 is > 35 µM (inactive).

As to `N[C@@]1(C(=O)O)CC[C@@H](C(=O)O)C1`, the EC50 was > 35 µM (inactive).

For `COc1cccc(C(=O)NCC(=O)N/N=C/c2ccc(OC(=O)c3cccs3)c(OC)c2)c1`, the EC50 was > 35 µM (inactive). For `CCOCCCNC(=O)c1ccc2c(c1)N=C(CC)c1cc(Br)ccc1S2`, the EC50 was > 35 µM (inactive). `COCCN(C(=O)CSc1nc2ccccc2c(=O)n1C(C)COC)c1c(N)n(Cc2ccccc2)c(=O)[nH]c1=O` (stereo not given): the EC50 was > 35 µM (inactive). The result for `COc1ccc(C(=O)Nc2ccc(S(=O)(=O)NC(C)=O)cc2)cc1[N+](=O)[O-]` reads > 35 µM (inactive).

For the compound `O=C(NCCOC(=O)c1ccc(Cl)c(S(=O)(=O)N2CCCCC2)c1)c1ccncc1`, the EC50 was > 35 µM (inactive).

As for `CN(C)Cc1ccc(O)c(CCc2ccccc2)n1`, the EC50 was > 35 µM (inactive). The result for `COc1ccc(NC(=O)/C(Cl)=C(/Cl)S(=O)Cc2ccc(C)cc2)cn1` (stereo not given) reads > 35 µM (inactive).

Regarding `COc1cc(-c2nnc(NC(=O)CCS(=O)(=O)c3ccc(F)cc3)o2)cc(OC)c1OC`, the EC50 is > 35 µM (inactive). Regarding `Cc1cc(NC(=O)CN(C)C)c([N+](=O)[O-])cc1C`, the EC50 was > 35 µM (inactive). For `O=C(CCCOc1ccc(Cl)cc1Cl)Nc1ncccn1` the value was > 35 µM (inactive); for `COc1ccc2cc(C)c3nnc(SCC(=O)Nc4nc(-c5ccc(F)cc5)cs4)n3c2c1`, 9.65 µM.

As for `Cn1cnc([N+](=O)[O-])c1S(=O)(=O)c1cccc(Cl)c1`, the EC50 was > 35 µM (inactive). As for `O=S(=O)(Nc1nc2ccccc2nc1Cl)c1ccc(Br)cc1`, the EC50 was > 35 µM (inactive). For `O=C(CCCCl)NC(=S)Nc1ccc(CN2CCOCC2)cc1` the value was > 35 µM (inactive); for `COC(=O)N(NC(=O)C(O)(c1ccccc1)c1ccccc1)c1ccc(C)cc1`, > 35 µM (inactive). The result for `O=C(Nc1cccc(Cl)c1)c1ccc(OC(=S)N2CCOCC2)cc1` reads > 35 µM (inactive); that for `O=C(c1ccco1)N1CCN(C(=O)C2CCN(S(=O)(=O)c3cccs3)CC2)CC1`, > 35 µM (inactive). For the compound `CCOc1ccc(CNC2CCCCCCC2)cc1OC`, the EC50 is > 35 µM (inactive). For the compound `COc1ccc(CCNC(=O)COC(=O)c2cnc(Cl)c(Cl)c2)cc1`, the EC50 was > 35 µM (inactive).

Take `COc1ccc(C)cc1S(=O)(=O)n1cnc2ccccc21`: the EC50 is > 35 µM (inactive).

With `CCCCN1C(=O)C(NC(C)=O)c2cc(Br)ccc21` (stereo not given), the EC50 is > 35 µM (inactive). Turning to `COc1cc(CN2CCNC(=O)C2CC(=O)N(C)CCCN2CCOCC2)cc(OC)c1` (stereo not given), the EC50 is > 35 µM (inactive).

As to `O=C1C2CCCN2C(c2cccc(Br)c2)N1c1ccc(F)cc1` (stereo not given), the EC50 is > 35 µM (inactive).

`O=C(NCCCN1CCCCC1)c1ccc2c(c1)NC(=O)c1ccccc1S2`: the EC50 is > 35 µM (inactive). With `Cc1ccc(C(C[N+](=O)[O-])c2c(C)[nH]n(-c3ccccc3)c2=O)cc1` (stereo not given), the EC50 is > 35 µM (inactive). The result for `CCCn1c(=N)n(CCOc2ccc(OC)cc2)c2ccccc21` reads > 35 µM (inactive); that for `Oc1ccc(C[C@H]2CNCCN2CCCCC2CCCCC2)cc1`, > 35 µM (inactive); that for `CCN(CC)c1ccc(C=NCCc2ccc(S(N)(=O)=O)cc2)cc1`, > 35 µM (inactive). In the case of `O=S1(=O)CCOC[C@H](CC2CCCCC2)N1Cc1cccc(Cl)c1`, the EC50 is > 35 µM (inactive). The result for `Cc1cc(Cl)ccc1OCC(=O)OCC(=O)c1c(N)n(C)c(=O)n(C)c1=O` reads > 35 µM (inactive); that for `Cc1cccc(C)c1OCc1nnc(SCC(=O)Nc2nccs2)n1-c1ccccc1`, > 35 µM (inactive). For `C[C@@H]1CN([C@@H](C)CO)C(=O)c2cc(NS(=O)(=O)c3ccc(Cl)cc3)ccc2O[C@H]1CN(C)Cc1ccncc1` the value was > 35 µM (inactive). The result for `CN(C)c1ccc(NC(=O)C2CCCN(S(=O)(=O)c3ccccc3)C2)cc1` (stereo not given) reads > 35 µM (inactive).

As for `COc1ccc(CNCc2ccc([N+](=O)[O-])cc2)cc1OC`, the EC50 was > 35 µM (inactive).

With `CN(CC(=O)Nc1ccc(F)cc1)C(=O)c1ccccc1OCc1ccc(F)cc1`, the EC50 is > 35 µM (inactive). The result for `O=[N+]([O-])c1ccc(S(=O)(=O)N/N=C/c2ccsc2)cc1` reads > 35 µM (inactive); that for `CCc1cccc(C)c1Nc1nc2ccccc2n2cnnc12`, > 35 µM (inactive). The result for `O=[N+]([O-])c1ccc(N2CCCC2)c(F)c1Br` reads > 35 µM (inactive). For `COc1cc(NC(=O)c2ccc(C)cc2C)ccc1NC(=O)c1cc2ccccc2o1` the value was 26.7 µM; for `Cn1c2ccccc2c2cnn(CC(=O)NCCCN3CCN(c4ccccc4F)CC3)c(=O)c21`, > 35 µM (inactive). `O=C(NCc1ccco1)/C(=C/c1ccc([N+](=O)[O-])cc1)NC(=O)c1ccco1`: the EC50 is > 35 µM (inactive). The result for `CC(=O)Nc1ccc(C(=O)CN2C(=O)NC3(CCCc4ccccc43)C2=O)c(F)c1` (stereo not given) reads > 35 µM (inactive).

Regarding `O=C(Cn1c(=O)c2cccn2c2cccnc21)N1CCN(c2ccc(Cl)cc2)CC1`, the EC50 is > 35 µM (inactive).

`O=C(NC1CCCCC1)C(c1ccc(F)cc1)N(CCc1ccccc1)C(=O)CN1C(=O)c2ccccc2S1(=O)=O` (stereo not given): the EC50 was 24.1 µM.

With `Cc1ccccc1[C@]1(C)ON(c2ccccc2C(F)(F)F)C1=O`, the EC50 was > 35 µM (inactive). In the case of `O=C(CCC1N=C2c3ccccc3N=C(SCC(=O)NCC3CCCO3)N2C1=O)NCc1ccc(F)cc1` (stereo not given), the EC50 was > 35 µM (inactive).

As to `CC1Cc2ccccc2N1C(=O)c1ccc2c(c1)nnn2C` (stereo not given), the EC50 is > 35 µM (inactive). `CN(C)CCCN(C(=O)c1cc2cc([N+](=O)[O-])ccc2s1)c1nc2cc3c(cc2s1)OCCO3`: the EC50 was > 35 µM (inactive). Consider `CCS(=O)(=O)c1nc2ccccc2n1Cc1ccccn1`, for which the EC50 is > 35 µM (inactive). For `CCCOC(=O)c1[nH]c2c(c1C)C(=O)CC(c1cccs1)C2` (stereo not given) the value was > 35 µM (inactive). For `Cc1ccc(C(O)(CCN2CCCCC2)c2ccccc2)cc1` (stereo not given) the value was > 35 µM (inactive); for `CCOc1ccccc1NC(=O)CN1C(=O)CSC(C)C1=O` (stereo not given), > 35 µM (inactive). The result for `CC(=O)Nc1ccc(S(=O)(=O)NCCc2ccccn2)cc1` reads > 35 µM (inactive); that for `Cc1ccc(OCCC(=O)Nc2ccccc2C(=O)NC2CC2)cc1`, > 35 µM (inactive). Consider `CCOC(=O)N1CCN(C(=O)c2ccc3nc(N4CCC(C)CC4)sc3c2)CC1`, for which the EC50 was > 35 µM (inactive). The result for `O=C(NCc1ccc2c(c1)OCO2)C1CCN(c2ncccn2)CC1` reads > 35 µM (inactive); that for `CC(=O)c1cccc(CN2CCN(CCc3ccccc3)C(CCO)C2)c1` (stereo not given), > 35 µM (inactive). The result for `COc1ccc(NC(=O)c2ccco2)c(NC(=O)c2ccc([N+](=O)[O-])cc2)c1` reads > 35 µM (inactive); that for `O=C(Nc1nc2c(Br)cc(Br)cc2c(=O)s1)c1ccco1`, > 35 µM (inactive); that for `CCc1cc(-c2[nH]ncc2-c2ccc(OC)cc2)c(O)cc1O`, > 35 µM (inactive). The result for `COc1c(Br)cc([N+](=O)[O-])c(OC)c1C(=O)NC(=O)Nc1nc(C)cc(C)n1` reads > 35 µM (inactive); that for `Cc1ccc(C)c(N(C)C(=O)c2ccc3c(=O)n4c(nc3c2)CCCCC4)c1`, > 35 µM (inactive). Turning to `Cc1cc(C(=O)Nc2cccc3c2O[C@@H](CN(C)S(=O)(=O)c2ccccc2)[C@H](C)CN([C@@H](C)CO)C3=O)n(C)n1`, the EC50 is > 35 µM (inactive). As to `N#CN=C1SCCS1`, the EC50 was > 35 µM (inactive). With `O=C(NNC(=O)c1cc(C(F)(F)F)cc(C(F)(F)F)c1)c1ccc(Cl)cc1`, the EC50 is > 35 µM (inactive). Regarding `Clc1nc(NCc2ccco2)nc(N2CCCCC2)n1`, the EC50 is > 35 µM (inactive). The result for `COC(=O)c1ccc(Cl)cc1NC(=O)/C=C/c1ccc(C)o1` reads > 35 µM (inactive); that for `COc1ccc(C(=O)NCc2nnc(SCC(=O)NCc3ccco3)o2)cc1OC`, > 35 µM (inactive). The result for `Cc1ccc(NC(=O)COC(=O)CCc2c(C)nc3ncnn3c2C)cc1C` reads > 35 µM (inactive). The result for `CC(C)c1cccc(-c2ccc3c(c2)S(=O)(=O)c2cccc(C(=O)NC4CCCC4)c2C3=O)c1` reads > 35 µM (inactive). On to `Cc1cccc(-n2c(Cc3ccccc3)n[nH]c2=S)c1`, for which the EC50 is > 35 µM (inactive). Take `Cc1c(C(c2ccccc2O)c2c(C)n(C)n(-c3ccccc3)c2=O)c(=O)n(-c2ccccc2)n1C`: the EC50 is > 35 µM (inactive).

As to `COc1ccc(CCNCC(C)c2ccccc2)cc1` (stereo not given), the EC50 was > 35 µM (inactive). Consider `Cc1ccc(S(=O)(=O)NCC(=O)OC2CCOC2=O)cc1` (stereo not given), for which the EC50 was > 35 µM (inactive). For `COc1cc(OC)cc(C(=O)Nc2ccc(S(=O)(=O)N3CCOCC3)cc2)c1` the value was > 35 µM (inactive); for `COCCCn1cc(C(=O)c2cc(OC)ccc2OCC(=O)N2CCCCC2C)cc(C#N)c1=O` (stereo not given), > 35 µM (inactive); for `CCc1ccccc1NC(=O)C(CC)Sc1nc2cc3c(cc2c(=O)n1Cc1ccco1)OCO3` (stereo not given), > 35 µM (inactive). Consider `CC(C)CC(=O)Nc1ccc2c(c1)OCO2`, for which the EC50 was > 35 µM (inactive).

As for `CCOc1ccc(Nc2cc(C)nc3nc(C)nn23)cc1`, the EC50 is > 35 µM (inactive).
